Assay results: patent publication US7932270B2 (Cytokinetics, Inc., priority 2006, dated 2011)

Biological target: T1, chicken gizzard smooth muscle myosin subfragment-1 chemically crosslinked to cardiac or skeletal actin (Gallus gallus, UniProt P10587)
T1 construct: chicken gizzard smooth muscle myosin subfragment-1; from tissue; host or cells: chicken gizzard
Test: Smooth muscle myosin ATPase dose response assay (pyruvate kinase/horseradish peroxidase/pyruvate oxidase-coupled, amplex red fluorescence)
Format: biochemical
Settings: read-out: IC50 Arithmetic Mean
Description: In Vitro Model of Dose Dependent Smooth Muscle Myosin ATPase Modulation
Screening assays were performed using a pyruvate kinase and lactate dehydrogenase-coupled ATPase assay containing the following reagents: Potassium PIPES (50 mM), MgCl2 (3 mM), KCl (100 mM), ATP (0.15 mM), DTT (1 mM), BSA (0.1 mg/ml), NADH (0.5 mM), PEP (1.5 mM), pyruvate kinase (4 U/ml), lactate dehydrogenase (8 U/ml), and antifoam (50 ppm) (concentrations expressed are final assay concentrations). The pH was adjusted to 6.80 at 22° C. by addition of potassium hydroxide. Lead optimization assays were performed with a more sensitive pyruvate kinase/horseradish peroxidase/pyruvate oxidase-coupled ATPase assay containing the following reagents: Potassium PIPES (12 mM), MgCl2 (2 mM), KCl (100 mM), ATP (0.15 mM), BSA (0.05 mg/ml), potassium phosphate (2 mM), amplex red (0.1 mM), PEP (0.1 mM), pyruvate kinase (4 U/ml), horseradish peroxidase (0.5 U/ml), pyruvate oxidase (0.5 U/ml), and antifoam (50 ppm) (concentrations expressed are final assay concentrations). The pH was adjusted to 7.00 at 22° C. by addition of potassium hydroxide.
The protein components specific to this assay are chicken gizzard smooth muscle myosin subfragment-1 that has been chemically crosslinked to either cardiac or skeletal actin using an excess of 1-Ethyl-3-[3-dimethylaminopropyl]carbodiimide hydrochloride and N-hydroxysuccinimide. The exact concentration of the crosslinked smooth muscle myosin in the assay is determined empirically, by titration to achieve a desired rate of ATP hydrolysis. The concentration varies between protein preparations due to variations in the fraction of active molecules in each preparation.
Compound dose response assays are performed by first preparing a dilution series of test compound, each with an assay mixture containing potassium PIPES, MgCl2, KCl, ATP, BSA, potassium phosphate, amplex red, PEP, crosslinked smooth muscle actomyosin (subfragment-1), antifoam, and water. The assay is started by adding an equal volume of solution containing potassium Pipes, MgCl2, KCl, BSA, potassium phosphate, pyruvate kinase, horseradish peroxidase, pyruvate oxidase, antifoam, and water. ATP hydrolysis is monitored by measuring the fluorescence of amplex red (excitation at 480 nm, emission at 615 nm). The resulting dose response curve is fit by the 4 parameter equation y=Bottom+((Top-Bottom)/(1+((IC50/X)^Hill))). The IC50 is defined as the concentration at which ATPase activity is midway between the top and bottom of the dose response curve.

T1 sequence (P02607 2-151): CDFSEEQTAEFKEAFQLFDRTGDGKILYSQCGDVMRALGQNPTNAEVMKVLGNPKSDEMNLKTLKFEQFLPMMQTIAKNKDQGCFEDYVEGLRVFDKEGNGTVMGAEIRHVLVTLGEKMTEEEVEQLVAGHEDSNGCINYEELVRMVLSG
T1 sequence (P10587 84-789): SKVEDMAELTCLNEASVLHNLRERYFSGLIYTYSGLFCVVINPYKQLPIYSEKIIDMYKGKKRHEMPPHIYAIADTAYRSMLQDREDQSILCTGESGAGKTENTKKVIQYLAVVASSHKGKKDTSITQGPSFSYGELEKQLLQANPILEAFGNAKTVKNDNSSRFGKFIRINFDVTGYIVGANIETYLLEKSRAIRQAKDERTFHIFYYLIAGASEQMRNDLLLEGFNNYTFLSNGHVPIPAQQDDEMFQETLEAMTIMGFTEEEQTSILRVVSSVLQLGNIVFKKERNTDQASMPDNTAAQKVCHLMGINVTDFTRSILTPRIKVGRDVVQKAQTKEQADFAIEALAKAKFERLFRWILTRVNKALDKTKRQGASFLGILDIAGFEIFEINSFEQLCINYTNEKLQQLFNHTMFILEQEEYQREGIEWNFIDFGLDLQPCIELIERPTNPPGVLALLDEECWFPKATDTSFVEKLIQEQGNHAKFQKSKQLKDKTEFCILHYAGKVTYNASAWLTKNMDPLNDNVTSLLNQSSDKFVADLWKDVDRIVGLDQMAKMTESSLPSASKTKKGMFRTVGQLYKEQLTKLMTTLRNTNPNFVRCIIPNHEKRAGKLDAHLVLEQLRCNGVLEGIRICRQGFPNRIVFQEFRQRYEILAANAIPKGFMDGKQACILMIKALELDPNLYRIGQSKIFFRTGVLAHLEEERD

SMILES	IC50
O=C(NCc1cccnc1)c1ccc(-c2nnn[nH]2)nc1NCCc1cccc(F)c1 [(6-(1H-1,2,3,4-tetraazol-5-yl)-2-{[2-(3-fluorophenyl)ethyl]amino}(3-pyridyl))-N-(3-pyridylmethyl)carboxamide]	78.1 µM
N#Cc1ccccc1-c1ccc(C(=O)NCCc2ccccn2)c(NCCc2cccc(F)c2)n1 [(6-(2-cyanophenyl)-2-{[2-(3-fluorophenyl)ethyl]amino}(3-pyridyl))-N-(2-(2-pyridyl)ethyl)carboxamide]	0.291 µM
CN(CCNC(=O)c1ccc(-c2ccccc2C#N)nc1NCCc1cccc(F)c1)C(=O)CCCNC(=O)OC(C)(C)C [4-[(tert-butoxy)carbonylamino]-N-{2-[(6-(2-cyanophenyl)-2-{[2-(3-fluorophenyl)ethyl]amino}(3-pyridyl))carbonylamino]ethyl}-N-methylbutanamide]	3.88 µM
C[C@H](CNC(=O)c1ccc(-c2ccccc2C#N)nc1NCCc1cccc(F)c1)NC(=O)CNC(=O)OC(C)(C)C	2.31 µM
CC(NC(=O)c1ccc(-c2ccccc2C#N)nc1NCCc1cccc(F)c1)C(N)=O (stereo not drawn)	0.564 µM
O=C1CC[C@H](CNC(=O)c2ccc(-c3cc[nH]n3)nc2NCCc2cccc(F)c2)N1 [N-[((2R)-5-oxopyrrolidin-2-yl)methyl](2-{[2-(3-fluorophenyl)ethyl]amino}-6-pyrazol-3-yl(3-pyridyl))carboxamide]	0.355 µM
Cc1cc(C(=O)NCc2cccnc2CNC(=O)OC(C)(C)C)c(NCCc2cccc(F)c2)nc1-c1cnn(C)c1 [N-[(2-{[(tert-butoxy)carbonylamino]methyl}(3-pyridyl))methyl](2-{[2-(3-fluorophenyl)ethyl]amino}-5-methyl-6-(1-methylpyrazol-4-yl)(3-pyridyl))carboxamide]	1.12 µM
CC(C)(CNC(=O)c1ccc(-c2ccccc2C#N)nc1NCCc1cccc(F)c1)NC(=O)CCCN	0.277 µM
N#Cc1ccccc1-c1ccc(C(=O)NC[C@@H](N)C(N)=O)c(NCCc2cccc(F)c2)n1 [N-((2R)-2-amino-2-carbamoylethyl)(6-(2-cyanophenyl)-2-{[2-(3-fluorophenyl)ethyl]amino}(3-pyridyl))carboxamide]	0.321 µM
CN(C)CCNC(=O)CNC(=O)c1ccc(-c2ccccc2C#N)nc1NCCc1cccc(F)c1 [N-[2-(dimethylamino)ethyl]-2-[(6-(2-cyanophenyl)-2-{[2-(3-fluorophenyl)ethyl]amino}(3-pyridyl))carbonylamino]acetamide]	9.31 µM
COC(=O)[C@@H](C)NC(=O)c1ccc(-c2ccccc2C#N)nc1NCCc1cccc(F)c1 [methyl (2R)-2-[(6-(2-cyanophenyl)-2-{[2-(3-fluorophenyl)ethyl]amino}(3-pyridyl))carbonylamino]propanoate]	0.743 µM
N#Cc1ccccc1-c1ccc(C(=O)N[C@H](CCCNC(=O)OCc2ccccc2)C(N)=O)c(NCCc2cccc(F)c2)n1 [N-{(4R)-4-carbamoyl-4-[(6-(2-cyanophenyl)-2-{[2-(3-fluorophenyl)ethyl]amino}(3-pyridyl))carbonylamino]butyl}(phenylmethoxy)carboxamide]	19.6 µM
Cc1cccc(-c2ccc(C(=O)NCc3cccnc3)c(NCCc3ccccn3)n2)c1 [{6-(3-methylphenyl)-2-[(2-(2-pyridyl)ethyl)amino](3-pyridyl)}-N-(3-pyridylmethyl)carboxamide]	6.27 µM

Continued by falling IC50, values first:

IC50	SMILES
12.4 µM	CN(C)c1cccc(-c2ccc(C(=O)NCc3cccnc3)c(NCCc3ccccn3)n2)c1 [{6-[3-(dimethylamino)phenyl]-2-[(2-(2-pyridyl)ethyl)amino](3-pyridyl)}-N-(3-pyridylmethyl)carboxamide]
11.2 µM	N#Cc1ccccc1-c1ccc(C(=O)NC[C@H]2CN(C(=O)CCN)CCN2)c(NCCc2cccc(F)c2)n1 [N-{[(2S)-4-(3-aminopropanoyl)piperazin-2-yl]methyl}(6-(2-cyanophenyl)-2-{[2-(3-fluorophenyl)ethyl]amino}(3-pyridyl))carboxamide]
7.44 µM	CC(=O)N1CCNC[C@@H]1CNC(=O)c1ccc(-c2ccccc2C#N)nc1NCCc1cccc(F)c1 [N-[((2R)-1-acetylpiperazin-2-yl)methyl](6-(2-cyanophenyl)-2-{[2-(3-fluorophenyl)ethyl]amino}(3-pyridyl))carboxamide]
3.74 µM	C=CCNC(=O)c1ccc(-c2ccccc2)nc1NCCc1cccc(C)c1 [(2-{[2-(3-methylphenyl)ethyl]amino}-6-phenyl(3-pyridyl))-N-prop-2-enylcarboxamide]
3.7 µM	Cc1cc(C(=O)NC[C@H]2CCCN2C(=O)OC(C)(C)C)c(NCCc2cccc(F)c2)nc1-c1cnn(C)c1 [tert-butyl (2R)-2-{[(2-{[2-(3-fluorophenyl)ethyl]amino}-5-methyl-6-(1-methylpyrazol-4-yl)(3-pyridyl))carbonylamino]methyl}pyrrolidinecarboxylate]
2.33 µM	COCCN[C@H](C)CNC(=O)c1cc(F)c(-c2cnn(C)c2)nc1NCCc1cccc(F)c1 [N-{(2R)-2-[(2-methoxyethyl)amino]propyl}(5-fluoro-2-{[2-(3-fluorophenyl)ethyl]amino}-6-(1-methylpyrazol-4-yl)(3-pyridyl))carboxamide]
2.23 µM	Cn1cc(-c2nc(NCCc3cccc(F)c3)c(C(=O)NCC3COC(C)(C)OC3)cc2F)cn1 [N-[(2,2-dimethyl(1,3-dioxan-5-yl))methyl](5-fluoro-2-{[2-(3-fluorophenyl)ethyl]amino}-6-(1-methylpyrazol-4-yl)(3-pyridyl))carboxamide]
1.58 µM	Cn1cc(-c2nc(NCCc3cccc(F)c3)c(C(=O)NC[C@H]3CCN3)cc2F)cn1 [N-[((2R)azetidin-2-yl)methyl](5-fluoro-2-{[2-(3-fluorophenyl)ethyl]amino}-6-(1-methylpyrazol-4-yl)(3-pyridyl))carboxamide]
1.38 µM	O=C(NCc1cccnc1)c1ccc(-c2ccc(F)cc2Cl)nc1NCCc1cccc(F)c1 [(6-(2-chloro-4-fluorophenyl)-2-{[2-(3-fluorophenyl)ethyl]amino}(3-pyridyl))-N-(3-pyridylmethyl)carboxamide]
1.27 µM	N#Cc1ccccc1-c1ccc(C(=O)NC[C@@H]2CCCN2C(=O)CCCN)c(NCCc2cccc(F)c2)n1 [N-{[(2S)-1-(4-aminobutanoyl)pyrrolidin-2-yl]methyl}(6-(2-cyanophenyl)-2-{[2-(3-fluorophenyl)ethyl]amino}(3-pyridyl))carboxamide]
0.783 µM	O=Cc1ccsc1-c1ccc(C(=O)NCc2cccnc2)c(NCCc2cccc(F)c2)n1 [(2-{[2-(3-fluorophenyl)ethyl]amino}-6-(3-formyl(2-thienyl))(3-pyridyl))-N-(3-pyridylmethyl)carboxamide]
0.416 µM	N#Cc1ccccc1-c1ccc(C(=O)NCCCCN)c(NCCc2cccc(F)c2)n1 [N-(4-aminobutyl)(6-(2-cyanophenyl)-2-{[2-(3-fluorophenyl)ethyl]amino}(3-pyridyl))carboxamide]
0.245 µM	Cn1cc(-c2nc(NCCc3cccc(F)c3)c(C(=O)NC[C@H]3CCCN3C(=O)CCCO)cc2F)cn1 [N-{[(2R)-1-(4-hydroxybutanoyl)pyrrolidin-2-yl]methyl}(5-fluoro-2-{[2-(3-fluorophenyl)ethyl]amino}-6-(1-methylpyrazol-4-yl)(3-pyridyl))carboxamide]
0.109 µM	CC(=O)[C@H](C)CNC(=O)c1cc(F)c(-c2cnn(C)c2)nc1NCCc1cccc(F)c1 [N-((2R)-2-methyl-3-oxobutyl)(5-fluoro-2-{[2-(3-fluorophenyl)ethyl]amino}-6-(1-methylpyrazol-4-yl)(3-pyridyl))carboxamide]
0.059 µM	N[C@@H](CO)C(=O)N1CCC[C@@H]1CNC(=O)c1cc(F)c(-c2cn[nH]c2)nc1NCCc1cccc(F)c1 [N-{[(2R)-1-((2S)-2-amino-3-hydroxypropanoyl)pyrrolidin-2-yl]methyl}(5-fluoro-2-{[2-(3-fluorophenyl)ethyl]amino}-6-pyrazol-4-yl(3-pyridyl))carboxamide]
0.041 µM	C[C@H](CNC(=O)c1ccc(-c2ccccc2C#N)nc1NCCc1cccc(F)c1)NC(=O)CN
0.025 µM	N#Cc1ccccc1-c1ccc(C(=O)NCC2CCCC(=O)N2CCCN)c(NCCc2cccc(F)c2)n1 (stereo not drawn) [N-{[1-(3-aminopropyl)-6-oxo(2-piperidyl)]methyl}(6-(2-cyanophenyl)-2-{[2-(3-fluorophenyl)ethyl]amino}(3-pyridyl))carboxamide]
